Measured values published in ChEMBL document CHEMBL5236632, “Membrane-Active Nonivamide Derivatives as Effective Broad-Spectrum Antimicrobials: Rational Design, Synthesis, and Biological Evaluation” (J Med Chem, 2022).
In brackets after ≈: the same amount, converted by molar mass. Activity calls are given as the source filed them. The rule behind the calls is not given here.

Experiments:
Staphylococcus aureus [1] = test: Antibacterial activity against methicillin-resistant Staphylococcus aureus N315 assessed as inhibition of visible growth measured after 18 to 24 hrs by broth dilution method; type: functional; conditions: time 18-24 hrs
[2] = Haemolytic activity in rabbit red blood cells incubated for 60 mins by k multi-mode reader relative to control; type: toxicity, cell-based, Oryctolagus cuniculus, Erythrocyte; conditions: rabbit red blood cells
Staphylococcus aureus [3] = test: Antibacterial activity against methicillin-resistant Staphylococcus aureus NCTC 10442 assessed as inhibition of visible growth measured after 18 to 24 hrs by broth dilution method; type: functional; conditions: time 18-24 hrs
Escherichia coli = test: Antibacterial activity against Escherichia coli ATCC 25922 assessed as inhibition of visible growth measured after 18 to 24 hrs by broth dilution method; type: functional; conditions: time 18-24 hrs
Staphylococcus aureus [4] = test: Antibacterial activity against Staphylococcus aureus ATCC 29213 assessed as inhibition of visible growth measured after 18 to 24 hrs by broth dilution method; type: functional; conditions: time 18-24 hrs
[5] = Selectivity ratio, HC50 for hemolytic activity in rabbit RBC to MIC for antibacterial activity against methicillin-resistant Staphylococcus aureus NCTC 10442; type: toxicity; conditions: rabbit red blood cells
[6] = Selectivity ratio, HC50 for hemolytic activity in rabbit RBC to MIC for antibacterial activity against Staphylococcus aureus ATCC 29213; type: toxicity; conditions: rabbit red blood cells
[7] = Selectivity ratio, HC50 for hemolytic activity in rabbit RBC to MIC for antibacterial activity against methicillin-resistant Staphylococcus aureus N315; type: toxicity; conditions: rabbit red blood cells
Staphylococcus aureus [8] = test: Drug resistance development in Staphylococcus aureus ATCC 29213 assessed as fold change in MIC measured after 20 passages; type: functional
Cell membrane [9] = test: Induction of outer membrane permeability in Escherichia coli ATCC 25922 assessed as increase fluoresence intensity at 4 to 8 times of MIC measured for 60 mins by NPN uptake assay; type: subcellular
Cell membrane [10] = test: Induction of membrane depolarization in Staphylococcus aureus ATCC 29213 assessed as increase in fluorescence intensity at 4 to 8 times MIC measured for 60 mins by DiSC3(5) dye based fluorescence method; type: subcellular
Cell membrane [11] = test: Induction of membrane depolarization in Escherichia coli ATCC 25922 assessed as increase in fluorescence intensity at 4 to 8 times MIC measured for 60 mins by DiSC3(5) dye based fluorescence method; type: subcellular

Structure (SMILES)	MIC (Staphylococcus aureus [1]) [µg/mL]	HC50 at 1 h [2] [µg/mL]	MIC (Staphylococcus aureus [3]) [µg/mL]	MIC (Escherichia coli) [µg/mL]	MIC (Staphylococcus aureus [4]) [µg/mL]	selectivity ratio [5]	selectivity ratio [6]	selectivity ratio [7]	fold change (FC) (Staphylococcus aureus [8])	Activity (Cell membrane [9])	Activity (Cell membrane [10])	Activity (Cell membrane [11])
CCCCCCCCC(=O)NCc1ccc(O)c(O)c1	> 50	> 200	> 50	> 50	> 50	–	–	–	–	–	–	–
CCCCCCCCC(=O)NCc1ccc(OCCCCNC(=N)N)c(OCCCCNC(=N)N)c1	3.12 (≈ 6.18 µM)	> 200	3.12 (≈ 6.18 µM)	50 (≈ 98.9 µM)	6.25 (≈ 12.4 µM)	> 32	> 32	> 32	–	–	–	–
CCCCCCCCC(=O)NCc1ccc(OCC(=O)N[C@@H](CCCNC(=N)N)C(=O)OC)c(OC)c1	50 (≈ 95.8 µM)	> 200	25 (≈ 47.9 µM)	> 50	25 (≈ 47.9 µM)	> 4	> 4	> 4	–	–	–	–
CCCCCCCCC(=O)NCc1ccc(OCCCCCCN)c(OC)c1	> 50	> 200	> 50	> 50	> 50	–	–	–	–	–	–	–
CCCCCCCCC(=O)NCc1ccc(OCCCCCCCCCCCCNC(=N)N)c(OC)c1	25 (≈ 48.2 µM)	> 200	25 (≈ 48.2 µM)	> 50	> 50	–	–	–	–	–	–	–
CCCCCCCCC(=O)NCc1ccc(OCCCCNC(=N)N)c(OC)c1	6.25 (≈ 15.4 µM)	> 200	6.25 (≈ 15.4 µM)	> 50	12.5 (≈ 30.7 µM)	> 16	> 16	> 16	–	–	–	–
CCn1cc(C(=O)O)c(=O)c2cc(F)c(N3CCNCC3)cc21 [NORFLOXACIN]	–	–	–	–	–	–	–	–	128	–	–	–
CCCCCCCCC(=O)NCc1ccc(OCCCCN(CCCN(C)C)CCCN(C)C)c(OC)c1	> 50	> 200	> 50	> 50	> 50	–	–	–	–	–	–	–
COc1cc(CNC(=O)CCCC/C=C/C(C)C)ccc1O [CAPSAICIN]	> 50	> 200	> 50	> 50	> 50	–	–	–	–	inactive	inactive	inactive
CCCCCCCCC(=O)NCc1ccc(OCCCCCCNCCN(CCNC(=N)N)CCNC(=N)N)c(OCCCCCCNCCN(CCNC(=N)N)CCNC(=N)N)c1	1.56 (≈ 1.73 µM)	> 200	1.56 (≈ 1.73 µM)	12.5 (≈ 13.8 µM)	1.56 (≈ 1.73 µM)	> 128	> 128	> 128	–	–	–	–
CCCCCCCCC(=O)NCc1ccc(OCCNC(=N)N)c(OC)c1	25 (≈ 66 µM)	> 200	25 (≈ 66 µM)	> 50	50 (≈ 132 µM)	> 4	> 4	> 4	–	–	–	–
CCN(CC)CCCCOc1ccc(CNC(=O)CCCC/C=C/C(C)C)cc1OC	> 50	> 200	> 50	> 50	> 50	–	–	–	–	–	–	–
COc1cc(CNC(=O)CCCC/C=C/C(C)C)ccc1OCCCCCCNC(=N)N	3.12 (≈ 7 µM)	> 200	3.12 (≈ 7 µM)	> 50	6.25 (≈ 14 µM)	> 32	> 32	> 32	–	–	–	–
CCCCCCCCC(=O)NCc1ccc(OCCCCCCNC(=N)N)c(OC)c1	3.12 (≈ 7.19 µM)	> 200	1.56 (≈ 3.59 µM)	> 50	3.12 (≈ 7.19 µM)	> 64	> 64	> 64	–	–	–	–
